In patent US6358885B1, “Substituted phenylheterocyclic herbicides” (Mississippi State University, priority 1992, dated 2002):

Tests used:
barley [1] = assay: Test B preemergence/postemergence greenhouse plant response rating 0 to 10; type: in vivo, Hordeum vulgare; conditions: 0 to 10 scale
Summary of the method: (§1)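 Test chemicals were sprayed onto freshly planted seed and, concurrently, onto young plants between the one and four leaf stage. After a twelve- to sixteen-day greenhouse period, each species was visually compared with untreated controls.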

bedstraw = assay: as above; type: in vivo, Galium aparine; conditions: 0 to 10 scale
Summary of the method: as §1

chickweed [2] = assay: as above; type: in vivo, Stellaria media; conditions: 0 to 10 scale
Summary of the method: as §1

cocklebur = assay: as above; type: in vivo, Xanthium pensylvanicum; conditions: 0 to 10 scale
Summary of the method: as §1

morningglory = assay: as above; type: in vivo, Ipomoea hederacea; conditions: 0 to 10 scale
Summary of the method: as §1

sorghum = assay: as above; type: in vivo, Sorghum bicolor; conditions: 0 to 10 scale
Summary of the method: as §1

soybean [3] = assay: as above; type: in vivo, Glycine max; conditions: 0 to 10 scale
Summary of the method: as §1

sugar beet = assay: as above; type: in vivo, Beta vulgaris; conditions: 0 to 10 scale
Summary of the method: as §1

velvetleaf = assay: as above; type: in vivo, Abutilon theophrasti; conditions: 0 to 10 scale
Summary of the method: as §1

wild buckwheat = assay: as above; type: in vivo, Polygonum convolvulus; conditions: 0 to 10 scale
Summary of the method: as §1

barley [4] = assay: Test C preemergence/postemergence greenhouse plant response rating 0 to 100; type: in vivo, Hordeum vulgare; conditions: POSTEMERGENCE; for Plant response rating Barley Igri: 0 to 100 scale
Summary of the method: (§2)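 Compounds in non-phytotoxic solvent applied preemergence to sandy loam one day after planting, postemergence at the 1–4 leaf stage, or to ~2.5 cm floodwater over silt loam.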

blackgrass = assay: as above; type: in vivo, Alopecurus myosuroides; conditions: POSTEMERGENCE; for Plant response rating, Blackgrass: 0 to 100 scale
Summary of the method: as §2

chickweed [5] = assay: as above; type: in vivo, Stellaria media; conditions: POSTEMERGENCE; for Plant response rating, Chickweed: 0 to 100 scale
Summary of the method: as §2

pigweed = assay: as above; type: in vivo, Amaranthusretroflexus; conditions: POSTEMERGENCE; for Plant response rating Pigweed: 0 to 100 scale
Summary of the method: as §2

rape = assay: as above; type: in vivo, Brassica napus; conditions: POSTEMERGENCE; for Plant response rating, Rape: 0 to 100 scale
Summary of the method: as §2

ryegrass = assay: as above; type: in vivo, Lolium multiflorum; conditions: POSTEMERGENCE; for Plant response rating Ryegrass: 0 to 100 scale
Summary of the method: as §2

soybean [6] = assay: as above; type: in vivo, Glycine max; conditions: POSTEMERGENCE; for Plant response rating, Soybean: 0 to 100 scale
Summary of the method: as §2

umbrella sedge = assay: Test C flood test plant response rating 0 to 100; type: in vivo, Cyperus difformis; conditions: for Plant response rating Umbrella sedge: flood test species listed under POSTEMERGENCE, 0 to 100 scale
Summary of the method: as §2

Fc1cc(Cl)c(OCCCl)cc1-c1nn2c(c1Cl)CCCC2 [Compound 49]
Plant response rating, Barley (barley [1]; POSTEMERGENCE, Rate 50 g/ha): 4
Plant response rating, Barley (barley [1]; POSTEMERGENCE, Rate 200 g/ha): 5
Plant response rating, Barley (barley [1]; PREEMERGENCE, Rate 50 g/ha): 0
Plant response rating, Barley (barley [1]; Rate 200 g/ha, PREEMERGENCE): 0
Plant response rating, Bedstraw (bedstraw; POSTEMERGENCE, Rate 50 g/ha): 9
Plant response rating, Bedstraw (bedstraw; POSTEMERGENCE, Rate 200 g/ha): 9
Plant response rating, Bedstraw (bedstraw; PREEMERGENCE, Rate 50 g/ha): 8
Plant response rating, Bedstraw (bedstraw; Rate 200 g/ha, PREEMERGENCE): 9
Plant response rating, Chickweed (chickweed [2]; POSTEMERGENCE, Rate 50 g/ha): 7
Plant response rating, Chickweed (chickweed [2]; POSTEMERGENCE, Rate 200 g/ha): 9
Plant response rating, Chickweed (chickweed [2]; PREEMERGENCE, Rate 50 g/ha): 0
Plant response rating, Chickweed (chickweed [2]; Rate 200 g/ha, PREEMERGENCE): 8
Plant response rating, Cocklebur (cocklebur; POSTEMERGENCE, Rate 50 g/ha): 9
Plant response rating, Cocklebur (cocklebur; POSTEMERGENCE, Rate 200 g/ha): 8
Plant response rating, Cocklebur (cocklebur; PREEMERGENCE, Rate 50 g/ha): 0
Plant response rating, Cocklebur (cocklebur; Rate 200 g/ha, PREEMERGENCE): 0
Plant response rating, Morningglory (morningglory; POSTEMERGENCE, Rate 50 g/ha): 10
Plant response rating, Morningglory (morningglory; PREEMERGENCE, Rate 50 g/ha): 1
Plant response rating, Morningglory (morningglory; Rate 200 g/ha, POSTEMERGENCE): 10
Plant response rating, Morningglory (morningglory; Rate 200 g/ha, PREEMERGENCE): 6
Plant response rating, Sorghum (sorghum; POSTEMERGENCE, Rate 50 g/ha): 3
Plant response rating, Sorghum (sorghum; PREEMERGENCE, Rate 50 g/ha): 0
Plant response rating, Sorghum (sorghum; Rate 200 g/ha, POSTEMERGENCE): 5
Plant response rating, Sorghum (sorghum; Rate 200 g/ha, PREEMERGENCE): 1
Plant response rating, Soybean (soybean [3]; POSTEMERGENCE, Rate 50 g/ha): 8
Plant response rating, Soybean (soybean [3]; PREEMERGENCE, Rate 50 g/ha): 0
Plant response rating, Soybean (soybean [3]; Rate 200 g/ha, POSTEMERGENCE): 8
Plant response rating, Soybean (soybean [3]; Rate 200 g/ha, PREEMERGENCE): 3
Plant response rating, Sugar beet (sugar beet; POSTEMERGENCE, Rate 50 g/ha): 10
Plant response rating, Sugar beet (sugar beet; PREEMERGENCE, Rate 50 g/ha): 9
Plant response rating, Sugar beet (sugar beet; Rate 200 g/ha, POSTEMERGENCE): 10
Plant response rating, Sugar beet (sugar beet; Rate 200 g/ha, PREEMERGENCE): 10
Plant response rating, Velvetleaf (velvetleaf; POSTEMERGENCE, Rate 50 g/ha): 9
Plant response rating, Velvetleaf (velvetleaf; PREEMERGENCE, Rate 50 g/ha): 0
Plant response rating, Velvetleaf (velvetleaf; Rate 200 g/ha, POSTEMERGENCE): 10
Plant response rating, Velvetleaf (velvetleaf; Rate 200 g/ha, PREEMERGENCE): 1
Plant response rating, Wild buckwheat (wild buckwheat; POSTEMERGENCE, Rate 50 g/ha): 10
Plant response rating, Wild buckwheat (wild buckwheat; PREEMERGENCE, Rate 50 g/ha): 7
Plant response rating, Wild buckwheat (wild buckwheat; Rate 200 g/ha, POSTEMERGENCE): 10
Plant response rating, Wild buckwheat (wild buckwheat; Rate 200 g/ha, PREEMERGENCE): 10
Plant response rating Barley Igri (barley [4]; 62 g/ha): 40
Plant response rating Barley Igri (barley [4]; 250 g/ha): 60
Plant response rating (0 to 100), Barley Igri (barley [4]; Rate 4 g/ha): 10
Plant response rating (0 to 100), Barley Igri (barley [4]; Rate 16 g/ha): 20
Plant response rating, Blackgrass (blackgrass; 62 g/ha): 50
Plant response rating, Blackgrass (blackgrass; 250 g/ha): 70
Plant response rating (0 to 100), Blackgrass (blackgrass; Rate 4 g/ha): 10
Plant response rating (0 to 100), Blackgrass (blackgrass; Rate 16 g/ha): 40
Plant response rating, Chickweed (chickweed [5]; 62 g/ha): 50
Plant response rating, Chickweed (chickweed [5]; 250 g/ha): 80
Plant response rating (0 to 100), Chickweed (chickweed [5]; Rate 4 g/ha): 20
Plant response rating (0 to 100), Chickweed (chickweed [5]; Rate 16 g/ha): 50
Plant response rating Pigweed (pigweed; 62 g/ha): 100
Plant response rating Pigweed (pigweed; 250 g/ha): 100
Plant response rating (0 to 100), Pigweed (pigweed; Rate 4 g/ha): 70
Plant response rating (0 to 100), Pigweed (pigweed; Rate 16 g/ha): 100
Plant response rating, Rape (rape; 62 g/ha): 70
Plant response rating, Rape (rape; 250 g/ha): 100
Plant response rating (0 to 100), Rape (rape; Rate 4 g/ha): 50
Plant response rating (0 to 100), Rape (rape; Rate 16 g/ha): 60
Plant response rating Ryegrass (ryegrass; 62 g/ha): 50
Plant response rating Ryegrass (ryegrass; 250 g/ha): 60
Plant response rating (0 to 100), Ryegrass (ryegrass; Rate 4 g/ha): 20
Plant response rating (0 to 100), Ryegrass (ryegrass; Rate 16 g/ha): 40
Plant response rating, Soybean (soybean [6]; 62 g/ha): 70
Plant response rating, Soybean (soybean [6]; 250 g/ha): 80
Plant response rating (0 to 100), Soybean (soybean [6]; Rate 4 g/ha): 40
Plant response rating (0 to 100), Soybean (soybean [6]; Rate 16 g/ha): 50
Plant response rating (0 to 100), Umbrella sedge (umbrella sedge; POSTEMERGENCE section, flood test, Rate 4 g/ha): 40
Plant response rating (0 to 100), Umbrella sedge (umbrella sedge; Rate 16 g/ha, under POSTEMERGENCE head (flood test species)): 70
Plant response rating Umbrella sedge (umbrella sedge; 62 g/ha): 90
Plant response rating Umbrella sedge (umbrella sedge; 250 g/ha): 95
